Where two headings read alike, the source gives them in different places. Starred links: 1 amine or outer side, 2 acyl side, 3 side chain; linkers in the order of their positions; H or OH if unused. Positions of bridges follow the written chain, without caps; N, C: chain ends. Non-standard residues stand in square brackets, D forms with d. Residues, ends and D or L forms follow the SMILES beside them. Chains are numbered I, II in the order given. Hexamethylenediamine = C(CCCN[*:2])CCN[*:1]; Dip = N[C@H](C(=O)O)C(c1ccccc1)c1ccccc1; Chg = N[C@H](C(=O)O)C1CCCCC1; NMeA = CN[C@@H](C)C(=O)O
What was measured:
[1] = target: T1, BIRC2-BIR3 domain (Homo sapiens, UniProt Q13490); assay: Differential scanning fluorimetry (DSF); details: for ΔTm [°C] (Supplementary Table S1): technical replicate
Procedure: Purified proteins were buffered in DSF buffer (25 mM HEPES pH 7.5, 500 mM NaCl) and were assayed in a 384-well plate (Thermo, #BC3384) with a final protein concentration of 20 μM in 10 μL final assay volume. Inhibitors were added in excess to a final concentration of 40 μM, using an ECHO 550 acoustic dispenser (Labcyte). As a fluorescent probe, SYPRO-Orange (Molecular Probes) was used at 5x final concentration. […] Data was analyzed using Boltzmann-equation in the Protein Thermal Shift software (Applied Biosystems). Samples were measured in technical triplicates.
The assay was run in the presence of DMSO to exclude DMSO influences towards melting temperature differences when testing small molecules (Figures 2C,D).

[2] = target: BIRC2 (Homo sapiens, UniProt Q13490); assay: NanoBRET cellular target engagement, full-length BIRC2
Procedure: (§1) In brief: Constructs contained the cDNA of full-length or single domains cloned in frame with an N-terminal NanoLuc-fusion as specified in Supplementary Table S2. Plasmids were transfected into HEK293T cells using FuGENE HD (Promega, E2312) and proteins were allowed to express for 20 h. […] The corresponding transfected cells were added and reseeded at a density of 2.5^5 cells/mL after trypsinization and resuspending in Opti-MEM without phenol red (Life Technologies). […] Competitive displacement data were then graphed using GraphPad Prism 9.3 software using a normalized 3-parameter curve fit with the following equation: Y = 100/(1 + 10^(X-LogIC50)).

[3] = target: BIRC3 (Homo sapiens, UniProt Q13489); assay: NanoBRET cellular target engagement, full-length BIRC3
Procedure: as §1

[4] = target: BIRC4 (Homo sapiens, UniProt P98170); assay: NanoBRET cellular target engagement, full-length BIRC4
Procedure: as §1

[5] = target: T2, BIRC7 (Homo sapiens, UniProt Q96CA5); assay: NanoBRET cellular target engagement, full-length BIRC7
T2 sequence (Q96CA5 1-298): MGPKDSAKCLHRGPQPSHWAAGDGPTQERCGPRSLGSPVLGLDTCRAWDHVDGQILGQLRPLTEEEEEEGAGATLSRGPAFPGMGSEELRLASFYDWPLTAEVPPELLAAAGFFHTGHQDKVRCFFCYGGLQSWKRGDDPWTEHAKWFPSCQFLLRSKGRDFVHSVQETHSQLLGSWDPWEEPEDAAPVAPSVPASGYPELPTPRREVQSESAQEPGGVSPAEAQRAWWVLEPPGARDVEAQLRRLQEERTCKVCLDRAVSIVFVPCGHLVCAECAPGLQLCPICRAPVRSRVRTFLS
Procedure: as §1

[6] = target: T3, BIRC8 (Homo sapiens, UniProt Q96P09); assay: NanoBRET cellular target engagement, full-length BIRC8
T3 sequence (Q96P09 1-236): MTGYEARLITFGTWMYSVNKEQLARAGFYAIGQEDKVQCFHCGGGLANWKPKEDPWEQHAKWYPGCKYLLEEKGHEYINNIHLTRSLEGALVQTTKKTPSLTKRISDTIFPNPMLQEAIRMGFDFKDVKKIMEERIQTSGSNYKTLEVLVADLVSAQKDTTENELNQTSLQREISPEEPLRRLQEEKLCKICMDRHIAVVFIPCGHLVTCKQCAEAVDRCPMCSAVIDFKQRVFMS
Procedure: as §1

[7] = target: T4, BIRC7 BIR (Homo sapiens, UniProt Q96CA5); assay: NanoBRET cellular target engagement, single domain BIRC7 BIR
T4 sequence (Q96CA5 70-176): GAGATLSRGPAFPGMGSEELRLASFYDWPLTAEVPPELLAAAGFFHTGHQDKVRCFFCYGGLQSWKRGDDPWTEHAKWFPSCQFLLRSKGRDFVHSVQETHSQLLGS
Procedure: as §1

[8] = target: T5, BIRC8 BIR (Homo sapiens, UniProt Q96P09); assay: NanoBRET cellular target engagement, single domain BIRC8 BIR
T5 sequence (Q96P09 1-90): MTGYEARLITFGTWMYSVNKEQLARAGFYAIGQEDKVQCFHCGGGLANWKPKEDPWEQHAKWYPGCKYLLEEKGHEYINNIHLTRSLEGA
Procedure: as §1

[9] = target: BIRC2 BIR2 (Homo sapiens, UniProt Q13490); assay: NanoBRET cellular target engagement, single domain BIRC2 BIR2
Procedure: as §1

[10] = target: BIRC3 BIR2 (Homo sapiens, UniProt Q13489); assay: NanoBRET cellular target engagement, single domain BIRC3 BIR2
Procedure: as §1

[11] = target: BIRC2 BIR3 (Homo sapiens, UniProt Q13490); assay: NanoBRET cellular target engagement, single domain BIRC2 BIR3
Procedure: as §1

[12] = target: BIRC3 BIR3 (Homo sapiens, UniProt Q13489); assay: NanoBRET cellular target engagement, single domain BIRC3 BIR3
Procedure: as §1

[13] = target: T6, BIRC1 BIR[2] (Homo sapiens, UniProt Q13075); assay: NanoBRET cellular target engagement, single domain BIRC1 BIR[2]
T6 sequence (Q13075 139-251): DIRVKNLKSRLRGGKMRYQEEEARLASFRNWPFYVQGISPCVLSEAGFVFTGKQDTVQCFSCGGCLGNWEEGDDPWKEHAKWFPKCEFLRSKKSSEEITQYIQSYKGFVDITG
Procedure: as §1

[14] = target: T1, BIRC2-BIR3 domain; assay: Fluorescence polarization (FP) competition assay with fluorescent SMAC probe; format: binding; parameters: BIRC2-BIR3 domain (260–352) was expressed; His6 (N, cleaved yes); GST (N, cleaved yes); made in house; host or cells: E. coli; details: read-out: FP Assay K I Values
Procedure: Resulting data was plotted using GraphPad Prism 9.3 software and analyzed using a nonlinear fit to calculate the probe IC50. […] Compounds were titrated from 20 μM to 20 nM using an ECHO 550 acoustic dispenser (Labcyte) incubated for 1 h at room temperature and subsequent read out.
The assay is based on the displacement of a fluorescent SMAC mimetic from the binding site.

[15] = target: T1, BIRC2-BIR3 domain; assay: Isothermal titration calorimetry (ITC); format: binding; parameters: BIRC2-BIR3 domain (260–352) was expressed; His6 (N, cleaved yes); GST (N, cleaved yes); made in house; host or cells: E. coli; details: 25°C; for Kd: duplicates, mean ± SD, read-out: K D Measured in ITC
Procedure: For this protocol, the chamber was pre-equilibrated with the test compound, and the BIRC2-BIR3 domain was titrated in while continuously measuring the rate of exothermic heat evolution. The heat of binding was integrated, corrected, and fitted to an independent single-binding site model based on the manufacturer’s instructions, from which thermodynamic parameters (ΔH and TΔS), equilibrium association and dissociation constants (K A and K D, respectively), and stoichiometry (n) were calculated.

[16] = target: T1, BIRC2-BIR3 domain; parameters: BIRC2-BIR3 domain (260–352) was expressed; His6 (N, cleaved yes); GST (N, cleaved yes); made in house; host or cells: E. coli; details: read-out: Literature FP Assay K I Values, cited from earlier work
[17] = target: T7, BIRC2-BIR3 domain (260-352) (human, UniProt Q13490 260-352); assay: fluorescence polarisation; BIRC2-BIR3 titrated from 40 uM to 600 pM into 30 nM FAM-labelled SMAC probe; 50 mM HEPES pH 7.5, 150 mM NaCl, 5% glycerol, 1 mM TCEP, 0.05% TWEEN20; 1 h at room temperature; details: both partners purified
T7 construct: BIR3 domain of human BIRC2 (cIAP1), residues 260-352; The expression tag was cleaved with TEV protease; also called BIR3 domain of BIRC2; not shown: His6, N-terminal, cleaved; GST, N-terminal, cleaved
T7 sequence (Q13490 260-352): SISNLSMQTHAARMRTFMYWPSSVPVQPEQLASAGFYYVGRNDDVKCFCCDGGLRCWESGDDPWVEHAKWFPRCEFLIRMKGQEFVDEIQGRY

Sequence of BIRC2 BIR2 (Q13490 165-267): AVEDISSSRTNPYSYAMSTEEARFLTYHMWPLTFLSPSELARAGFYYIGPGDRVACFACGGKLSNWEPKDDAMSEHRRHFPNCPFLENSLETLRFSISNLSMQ
T1 sequence (Q13490 260-352): as the sequence (Q13490 260-352) above
Sequence of BIRC4 (P98170 whole entry): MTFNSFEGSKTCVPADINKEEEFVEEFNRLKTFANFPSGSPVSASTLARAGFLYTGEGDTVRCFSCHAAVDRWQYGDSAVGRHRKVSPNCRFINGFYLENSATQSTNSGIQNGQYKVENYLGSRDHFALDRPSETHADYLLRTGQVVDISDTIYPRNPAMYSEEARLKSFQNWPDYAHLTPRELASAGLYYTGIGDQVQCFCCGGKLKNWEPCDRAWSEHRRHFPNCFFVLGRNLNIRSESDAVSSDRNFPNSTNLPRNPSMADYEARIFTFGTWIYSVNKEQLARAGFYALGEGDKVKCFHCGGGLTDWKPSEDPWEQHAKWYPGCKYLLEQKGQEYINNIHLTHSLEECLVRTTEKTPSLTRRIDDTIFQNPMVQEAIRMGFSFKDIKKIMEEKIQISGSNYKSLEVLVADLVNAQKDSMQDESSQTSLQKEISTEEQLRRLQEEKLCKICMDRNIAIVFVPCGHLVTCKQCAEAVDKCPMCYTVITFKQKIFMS
Sequence of BIRC3 BIR3 (Q13489 236-360): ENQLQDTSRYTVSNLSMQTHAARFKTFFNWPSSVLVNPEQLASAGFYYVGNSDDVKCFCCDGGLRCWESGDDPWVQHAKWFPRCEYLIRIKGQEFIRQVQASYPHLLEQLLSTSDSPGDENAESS
Sequence of BIRC2 BIR3 (Q13490 251-372): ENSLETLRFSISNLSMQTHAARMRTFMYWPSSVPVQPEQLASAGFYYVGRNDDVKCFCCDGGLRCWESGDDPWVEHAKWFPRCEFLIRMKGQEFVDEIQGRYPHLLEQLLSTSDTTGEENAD
Sequence of BIRC3 BIR2 (Q13489 147-253): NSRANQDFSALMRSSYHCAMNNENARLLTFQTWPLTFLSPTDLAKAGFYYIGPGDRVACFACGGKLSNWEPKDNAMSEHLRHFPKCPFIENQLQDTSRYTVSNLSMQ
Sequence of BIRC3 (Q13489 whole entry): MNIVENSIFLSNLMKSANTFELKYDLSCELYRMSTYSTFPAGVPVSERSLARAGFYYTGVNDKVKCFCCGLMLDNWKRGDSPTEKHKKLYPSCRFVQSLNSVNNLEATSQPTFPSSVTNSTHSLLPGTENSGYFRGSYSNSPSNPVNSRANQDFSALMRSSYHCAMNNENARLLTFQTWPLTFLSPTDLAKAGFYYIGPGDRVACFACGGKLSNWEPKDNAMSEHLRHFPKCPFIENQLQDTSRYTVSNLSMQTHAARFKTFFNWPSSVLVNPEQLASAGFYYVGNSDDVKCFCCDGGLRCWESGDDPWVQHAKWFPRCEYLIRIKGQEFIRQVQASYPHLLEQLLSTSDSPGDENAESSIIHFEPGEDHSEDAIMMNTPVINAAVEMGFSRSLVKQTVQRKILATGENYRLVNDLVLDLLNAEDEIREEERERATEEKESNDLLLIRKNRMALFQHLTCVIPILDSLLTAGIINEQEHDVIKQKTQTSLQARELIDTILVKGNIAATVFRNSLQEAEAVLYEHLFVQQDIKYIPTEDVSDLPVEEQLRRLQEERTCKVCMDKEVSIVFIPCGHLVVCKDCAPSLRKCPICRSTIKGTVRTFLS
Sequence of BIRC2 (Q13490 whole entry): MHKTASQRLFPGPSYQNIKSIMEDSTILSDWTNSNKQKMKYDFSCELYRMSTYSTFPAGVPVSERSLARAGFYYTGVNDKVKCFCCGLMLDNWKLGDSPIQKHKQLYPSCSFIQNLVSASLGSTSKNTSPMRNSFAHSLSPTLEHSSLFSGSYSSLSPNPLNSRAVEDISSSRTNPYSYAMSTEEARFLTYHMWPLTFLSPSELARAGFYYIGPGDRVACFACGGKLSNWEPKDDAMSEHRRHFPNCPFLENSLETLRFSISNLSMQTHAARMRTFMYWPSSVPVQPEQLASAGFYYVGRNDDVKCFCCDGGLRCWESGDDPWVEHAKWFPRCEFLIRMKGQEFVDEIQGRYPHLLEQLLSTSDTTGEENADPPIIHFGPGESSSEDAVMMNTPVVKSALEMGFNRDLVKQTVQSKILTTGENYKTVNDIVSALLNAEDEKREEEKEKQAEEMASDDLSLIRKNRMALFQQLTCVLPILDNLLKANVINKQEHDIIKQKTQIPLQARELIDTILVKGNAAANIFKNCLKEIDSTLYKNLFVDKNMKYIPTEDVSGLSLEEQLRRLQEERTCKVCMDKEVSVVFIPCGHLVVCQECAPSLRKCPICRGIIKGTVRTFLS

CN[C@@H](C)C(=O)N[C@H](C(=O)N1CCC[C@H]1C(=O)N[C@H]1c2ccccc2C[C@H]1OCC#CC#CCO[C@@H]1Cc2ccccc2[C@@H]1NC(=O)[C@@H]1CCCN1C(=O)[C@@H](NC(=O)[C@H](C)NC)C1CCCCC1)C1CCCCC1 [AZD5582]
melting temperature of BIRC2 BIR3 domain with compound ([1]; native domain ∼74°C): 92 °C | ΔTm at 40 µM ([1]; read-out: DSF Assay ΔTm): 18 °C | ΔTm [°C] (Supplementary Table S1) ([1]; first column): 18.2 °C | ΔTm [°C] (Supplementary Table S1) ([1]; third column): 17.9 °C | EC50 [2]: 192 ± 99.3 nM | EC50 [3]: 81.1 ± 14.8 nM | EC50 [4]: 79.6 ± 37.5 nM | EC50 [5]: 8 ± 0.3 nM | EC50 [6]: 76.3 ± 0.1 nM | EC50 [7]: 16.1 ± 6.3 nM | EC50 [8]: 85.5 ± 11.1 nM | EC50 [9]: 171 ± 151 nM | EC50 [10]: 28.5 ± 3.2 nM | EC50 [11]: 23 ± 14.4 nM | EC50 [12]: 4.1 ± 0.1 nM | EC50 [13]: 776 ± 200 nM | Ki [14]: 2.3 ± 0.3 nM | Kd [15]: 41.1 ± 2.9 nM | Ki ([16]; calculated from IC50, ref Hennessy et al. (2013)): 6.4 ± 4.3 nM

CN[C@@H](C)C(=O)N[C@H](C(=O)N1CCC[C@H]1C(=O)N[C@H](C(=O)NCCCCCCNC(=O)[C@@H](NC(=O)[C@@H]1CCCN1C(=O)[C@@H](NC(=O)[C@H](C)NC)C1CCCCC1)C(c1ccccc1)c1ccccc1)C(c1ccccc1)c1ccccc1)C1CCCCC1 [BV-6] (I: H-[NMeA][Chg]P[Dip] / II: H-[NMeA][Chg]P[Dip]; linker I:C-II:C via Hexamethylenediamine)
Mean, ΔTm [°C] (Supplementary Table S1) ([1]; mean of n=3, difference to DMSO control): 9.1 °C | ΔTm [°C] (Supplementary Table S1) ([1]; first column): 9.1 °C | ΔTm [°C] (Supplementary Table S1) ([1]; second column): 9.1 °C | ΔTm [°C] (Supplementary Table S1) ([1]; third column): 9.1 °C | EC50 ([2]; read-out: EC50 ± SEM NanoBRET BIRC2, full-length, HEK293T, n = 4): 500 ± 100 nM | EC50 ([3]; read-out: EC50 ± SEM NanoBRET BIRC3, full-length, HEK293T, n = 4): 800 ± 100 nM | EC50 ([4]; read-out: EC50 ± SEM NanoBRET BIRC4, full-length, HEK293T, n = 4): 900 ± 100 nM | EC50 ([5]; read-out: EC50 ± SEM NanoBRET BIRC7, full-length, HEK293T, n = 4): 2600 ± 800 nM | EC50 ([6]; read-out: EC50 ± SEM NanoBRET BIRC8, full-length, HEK293T, n = 4): 2600 ± 200 nM | EC50 ([7]; read-out: EC50 ± SEM NanoBRET BIRC7 BIR, single domain, HEK293T, n = 4): 2700 ± 800 nM | EC50 ([8]; read-out: EC50 ± SEM NanoBRET BIRC8 BIR, single domain, HEK293T, n = 4): 3000 ± 100 nM | EC50 ([9]; read-out: EC50 ± SEM NanoBRET BIRC2 BIR2, single domain, HEK293T, n = 4): > 50000 nM | EC50 ± SEM NanoBRET BIRC2 BIR2 ([9]; single domain, HEK293T, n = 4): did not show any binding | EC50 ([10]; read-out: EC50 ± SEM NanoBRET BIRC3 BIR2, single domain, HEK293T, n = 4): 18000 ± 25200 nM | EC50 ([11]; read-out: EC50 ± SEM NanoBRET BIRC2 BIR3, single domain, HEK293T, n = 4): 800 ± 100 nM | EC50 ([12]; read-out: EC50 ± SEM NanoBRET BIRC3 BIR3, single domain, HEK293T, n = 4): 1700 ± 400 nM | EC50 ([13]; read-out: EC50 ± SEM NanoBRET BIRC1 BIR[2], single domain, HEK293T, n = 4): 10900 ± 2100 nM | Ki ([14]; BIRC2 BIR3 domain, Cheng-Prusoff from IC50, mean ± SD, n = 3): 8.4 ± 0.7 nM | ITC TΔS [15]: 6.94 ± 0.1 kcal/mol | Kd [15]: 24.8 ± 8.5 nM | Ki ([16]; ref Varfolomeev et al. (2007)): 169 nM

B1: fluorescently labeled SMAC probe (AVPIAQKSEK-K(5-FAM)-NH2) (peptide)
peptide: AVPIAQKSEKK
modifications: 5-FAM on the C-terminal lysine (K(5-FAM)); C-terminal amide (NH2)
notes: two lysines that follow the SMAC stretch; the last one carries 5-FAM; Probably a synthetic peptide; also called fluorescent SMAC mimetic; tracer
Kd [17]: 14.9 nM
